The text below walks through data of PubChem BioAssay (NCI).

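Cultured in 96-well plates, cells were exposed to test compound for 48 hours across five concentrations. TGI: total growth inhibition.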 Where only a bound is given, the exact number is not on record here.

Test systems include MDA-N; MALME-3M melanoma; HCC-2998 colon; MCF7 breast; A549 NSCLC; T-47D breast; IGROV1 ovarian; SF-268 CNS; CAKI-1 renal; HT29 colon; SK-MEL-28 melanoma; TK-10 renal; UACC-257 melanoma; NCI/ADR-RES ovarian; SF-539 CNS; SW-620 colon; RPMI-8226 leukemia; MOLT-4 leukemia; K-562 leukemia.
Holding throughout (assay): NCI anticancer screen, dose series, 48 h

In the case of `CN(C)CCCNC(=O)c1cn2c(ccc3sc4ccccc4c(=O)c32)n1`, the TGI in the experiment with MDA-N worked out at 9.88 µM; with MALME-3M melanoma it was 24.4 µM; with HCC-2998 colon, 25.4 µM; in the experiment with MCF7 breast it was 8.48 µM; with A549 NSCLC, 28.3 µM; in the experiment on T-47D breast it was 45.3 µM. The TGI with IGROV1 ovarian turned out to be 27.4 µM; in the experiment on SF-268 CNS it was 9.96 µM; with CAKI-1 renal, 14.8 µM; in the experiment on HT29 colon, 2.74 µM; in the experiment with SK-MEL-28 melanoma, 19.6 µM; in the experiment with TK-10 renal, 30.9 µM. Further, the TGI in the experiment with UACC-257 melanoma was 30.3 µM; in the experiment with NCI/ADR-RES ovarian, 8.37 µM; with SF-539 CNS it was 33.1 µM; in the experiment with SW-620 colon, 3.15 µM; in the experiment on RPMI-8226 leukemia, 5.36 µM.

Regarding `O=C(N/N=C\c1ccc([N+](=O)[O-])s1)c1ccncc1`, the TGI was more than 55.8 µM in the experiment with MDA-N; 23.3 µM in the experiment on MALME-3M melanoma; 24 µM with HCC-2998 colon; 9.96 µM with MCF7 breast; more than 66.3 µM in the experiment on A549 NSCLC; 48.4 µM with T-47D breast. Also, the TGI in the experiment with IGROV1 ovarian was 26 µM; in the experiment on SF-268 CNS, 55 µM; in the experiment with CAKI-1 renal it was 49.2 µM; in the experiment on HT29 colon it was 15.9 µM; with SK-MEL-28 melanoma it was more than 64.9 µM; in the experiment on TK-10 renal, more than 51.7 µM. The TGI in the experiment on UACC-257 melanoma was 31.8 µM; with NCI/ADR-RES ovarian it was more than 91.1 µM; in the experiment on MOLT-4 leukemia it was more than 63.2 µM; in the experiment with SF-539 CNS, 43.3 µM; with SW-620 colon, more than 45.4 µM; in the experiment with RPMI-8226 leukemia, more than 41.3 µM.

As to `COc1cc(/C=N/NC2=NCCN2)ccc1O`, the TGI in the experiment on MDA-N, in the experiment with MALME-3M melanoma, in the experiment with HCC-2998 colon, with MCF7 breast, in the experiment on A549 NSCLC and in the experiment with T-47D breast was more than 100 µM throughout. Also, the TGI in the experiment with IGROV1 ovarian, with SF-268 CNS, in the experiment on HT29 colon, in the experiment on SK-MEL-28 melanoma, in the experiment on K-562 leukemia and in the experiment on TK-10 renal was more than 100 µM throughout. Further, the TGI in the experiment on UACC-257 melanoma, in the experiment with NCI/ADR-RES ovarian, in the experiment with MOLT-4 leukemia, in the experiment on SF-539 CNS, in the experiment on SW-620 colon and in the experiment with RPMI-8226 leukemia was more than 100 µM throughout.

As to `COc1cc2c3c(cc(Cl)nc3c1OC)C(O)(CC(=O)c1ccccc1)C(=O)N2` (stereo not given), the TGI with MDA-N was 3.65 µM; in the experiment with MALME-3M melanoma it was 4.04 µM; in the experiment with HCC-2998 colon it was 35.7 µM; in the experiment on MCF7 breast it was 4.02 µM; in the experiment with A549 NSCLC, 33.1 µM; in the experiment on T-47D breast it was more than 100 µM. Besides, the TGI with IGROV1 ovarian was 27.4 µM; with SF-268 CNS, 13.7 µM; with CAKI-1 renal, 31.6 µM; with HT29 colon it was 44.7 µM; with SK-MEL-28 melanoma it was 33.5 µM; in the experiment on K-562 leukemia it was 16.7 µM. The TGI is 32.1 µM with TK-10 renal; 21.4 µM in the experiment with UACC-257 melanoma; 63.8 µM with NCI/ADR-RES ovarian; 5.27 µM in the experiment on SF-539 CNS; more than 44.7 µM in the experiment on SW-620 colon; more than 26.3 µM with RPMI-8226 leukemia.

As for `COc1ccc2c(c1)CCC/C2=N\NS(=O)(=O)c1c(C)cc(C)cc1C`, the TGI in the experiment on MDA-N is more than 100 µM; with MALME-3M melanoma, 48.8 µM; in the experiment on HCC-2998 colon it was more than 100 µM; in the experiment on MCF7 breast, more than 100 µM; with A549 NSCLC it was more than 100 µM; in the experiment with T-47D breast, 53.9 µM. Moreover, the TGI was 55 µM in the experiment on IGROV1 ovarian; more than 100 µM in the experiment on CAKI-1 renal; 43.5 µM in the experiment with HT29 colon; more than 100 µM in the experiment with SK-MEL-28 melanoma; 41.6 µM in the experiment on K-562 leukemia; more than 100 µM in the experiment with TK-10 renal. The TGI is more than 100 µM in the experiment with UACC-257 melanoma; 59.9 µM in the experiment on NCI/ADR-RES ovarian; 66.1 µM with MOLT-4 leukemia; 41.5 µM with SF-539 CNS; 90.8 µM in the experiment with SW-620 colon.

As to `Clc1cc2nnn(C3CCCO3)c2cc1Cl` (stereo not given), the TGI in the experiment with MDA-N, in the experiment on MALME-3M melanoma, in the experiment with HCC-2998 colon, in the experiment with MCF7 breast, in the experiment with A549 NSCLC and with T-47D breast was more than 100 µM in each case. Further, the TGI in the experiment on IGROV1 ovarian, in the experiment with SF-268 CNS, in the experiment with CAKI-1 renal, in the experiment with HT29 colon, with K-562 leukemia and in the experiment on TK-10 renal was more than 100 µM in each case. The TGI with UACC-257 melanoma, in the experiment on NCI/ADR-RES ovarian, in the experiment on MOLT-4 leukemia and in the experiment with SF-539 CNS was more than 100 µM each time.

On to `CCCCC[C@H]1CCCCCCCCCC(=O)OC2C(O[C@@H]3OC(C)[C@H](OC(=O)[C@@H](C)CC)C(O[C@@H]4OC(C)[C@H](O)C(O)[C@@H]4O)[C@@H]3OC(=O)[C@H](C)CC)[C@H](OC3C(O)[C@@H](O)C(C)O[C@H]3O1)OC(CO)[C@H]2O` (stereo not given in full), for which the TGI in the experiment on MDA-N was determined as 31.4 µM; in the experiment with MALME-3M melanoma, 28.8 µM; in the experiment with HCC-2998 colon, 31.8 µM; in the experiment with MCF7 breast, 34.7 µM; in the experiment with A549 NSCLC it was 31.2 µM; in the experiment with T-47D breast it was 33.3 µM. For the same molecule, the TGI came to 31.8 µM with IGROV1 ovarian; 33.4 µM with SF-268 CNS; 31.7 µM in the experiment with CAKI-1 renal; 30.3 µM in the experiment with HT29 colon; 30.9 µM in the experiment with SK-MEL-28 melanoma; 32.9 µM in the experiment with K-562 leukemia. For the same molecule, the TGI with TK-10 renal came out at 34.3 µM; in the experiment on UACC-257 melanoma it was 29.2 µM; in the experiment with NCI/ADR-RES ovarian, 36.9 µM; in the experiment on MOLT-4 leukemia it was 35.4 µM; with SW-620 colon, 30.9 µM; in the experiment with RPMI-8226 leukemia, 30.5 µM.

Consider `Cc1ccc(NC(=O)CC(=O)n2nc(C)c(N=Nc3cccc(C)c3)c2C)cc1`, for which the TGI in the experiment with MDA-N, in the experiment on MALME-3M melanoma, in the experiment with HCC-2998 colon, in the experiment with MCF7 breast, in the experiment on A549 NSCLC and with T-47D breast was more than 100 µM in each case. Moreover, the TGI in the experiment with IGROV1 ovarian, in the experiment with SF-268 CNS, with CAKI-1 renal, in the experiment on HT29 colon, in the experiment with SK-MEL-28 melanoma and in the experiment on TK-10 renal was more than 100 µM each time. Further, the TGI in the experiment with UACC-257 melanoma, in the experiment with NCI/ADR-RES ovarian, in the experiment with MOLT-4 leukemia, in the experiment on SF-539 CNS, in the experiment on SW-620 colon and with RPMI-8226 leukemia was more than 100 µM each time.
